This assay addresses T1, Human autotaxin enzyme (Homo sapiens, UniProt Q13822).
T1 construct: purchased R&D System
The experiment in a line: Evaluation of autotaxin inhibitor, 18:0 Lyso PC / choline assay (Test Example 2). In kind it is biochemical. Particulars: human autotaxin enzyme, 18:0 Lyso PC substrate, choline assay, room temperature 2 hours; read-out: Inhibitor activity (IC50). An outline of the steps: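 Inhibition derived from concentration-dependent curves, scaled between no-compound (0%) and no-enzyme (100%) wells. Choline generated from 18:0 Lyso PC (200 μM stock) by human enzyme over 2 h at room temperature (Tris-HCl pH 7.5, NaCl, MgCl2, Triton X-100) read as resorufin fluorescence, 531/598 nm, after choline oxidase-peroxidase coupling.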
Regarding `COC(=O)Nc1cc(Cl)ccc1-c1cc(=O)n(CC(=O)N(C)C2(C)COC2)c(C)n1` [Compound I-0274], the IC50 was 10 to 100 nM.
In the case of `COC(=O)Nc1cc(Cl)ccc1-c1cc(=O)n(CC(=O)NCC2(CO)CC2)c(C)n1` [Compound I-0275], the 50% inhibitory concentration (IC50) lay within 10 to 100 nM.
For `COC(=O)Nc1cc(Cl)ccc1-c1cc(=O)n(CC(=O)N(C(C)C)C(C)C)c(C)n1` [Compound I-0276] the value was 10 to 100 nM.
In the case of `COC(=O)Nc1cc(Cl)ccc1-c1cc(=O)n(CC(=O)N(C)C(C)(C)CO)c(C)n1` [Compound I-0277] it was 10 to 100 nM; in that of `Cc1nc(-c2ccc(F)cc2NC(=O)C(C)(C)C)cc(=O)n1Cc1cccc(C(=O)O)c1` [Compound I-0278], 10 to 100 nM.
In the case of `Cc1nc(-c2ccc(Cl)cc2NC(=O)C2CC2)cc(=O)n1Cc1cccc(C(=O)O)c1` [Compound I-0279] it was under 10 nM; in that of `O=C(O)c1ccc(Cn2c(CCCC(F)(F)F)nc(-c3ccc(Cl)cc3)cc2=O)o1` [Compound I-0280], 10 to 100 nM.
For `Cc1nc(-c2ccc(F)cc2NC(=O)C2CC2)cc(=O)n1CC(=O)NCC1(CO)COC1` [Compound I-0281], the IC50 was in the range of 100 to 1000 nM.
Consider `Cc1nc(-c2ccc(C#N)cc2NC(=O)C(C)(C)C)cc(=O)n1Cc1cccc(C(=O)O)c1` [Compound I-0282], for which the IC50 is under 10 nM.
In the case of `CC(C)(C)OC(=O)NCn1c(CCCC(F)(F)F)nc(-c2ccc(Cl)cc2)cc1=O` [Compound I-0283] it was 100 to 1000 nM; in that of `CC(C)(C)OC(=O)Cn1c(CCCC(F)(F)F)nc(-c2ccc(Cl)cc2F)cc1=O` [Compound I-0284], 10 to 100 nM.
Turning to `COC(=O)Nc1cc(Cl)ccc1-c1cc(=O)n(CC(=O)N2CCOCC2(C)C)c(C)n1` [Compound I-0285], the IC50 was 10 to 100 nM.
Take `COC(=O)Nc1cc(Cl)ccc1-c1cc(=O)n(CC(=O)NCC2(CO)COC2)c(C)n1` [Compound I-0286]: the half-inhibitory concentration (IC50) lay in the range of 10 to 100 nM.
For `Cc1nc(-c2ccc(C#N)cc2NC(=O)C2CC2)cc(=O)n1CC(=O)NCC1(CO)COC1` [Compound I-0287] the value was 10 to 100 nM; for `O=C(O)c1cncc(Cn2c(CCCC(F)(F)F)nc(-c3ccc(Cl)cc3)cc2=O)c1` [Compound I-0288], 10 to 100 nM; for `O=C(O)c1cccc(Cn2c(CCCC(F)(F)F)nc(-c3ccc(Cl)cc3)cc2=O)n1` [Compound I-0289], 100 to 1000 nM.
As to `Cc1nc(-c2ccc(Cl)cc2NC(=O)C(C)(C)C)cc(=O)n1Cc1cccc(C(=O)O)c1` [Compound I-0290], the IC50 was under 10 nM.
For `COC(=O)c1ccc(Cn2c(CCCC(F)(F)F)nc(-c3ccc(Cl)cc3)cc2=O)o1` [Compound I-0291] the value was 10 to 100 nM; for `O=C(O)c1cc(Cn2c(CCCC(F)(F)F)nc(-c3ccc(Cl)cc3)cc2=O)cs1` [Compound I-0292], 10 to 100 nM; for `O=C(O)c1ccc(Cn2c(CCCC(F)(F)F)nc(-c3ccc(Cl)cc3)cc2=O)s1` [Compound I-0293], 10 to 100 nM.
For the molecule `O=C(O)c1nc(Cn2c(CCCC(F)(F)F)nc(-c3ccc(Cl)cc3)cc2=O)cs1` [Compound I-0294], the half-inhibitory concentration (IC50) was 10 to 100 nM.
In the case of `CSc1nc(-c2ccc(Cl)cc2NC(=O)C2CC2)cc(=O)n1CC(=O)NC1(C#N)CC1` [Compound I-0295] it was 10 to 100 nM.
In the case of `CC(C)(C)OC(=O)Cn1c(CCCC(F)(F)F)nc(-c2ccc(Cl)cc2C=O)cc1=O` [Compound I-0296] it was 100 to 1000 nM; in that of `CN(CC#N)C(=O)Cn1c(CCCC(F)(F)F)nc(-c2ccc(C(F)(F)F)cc2)cc1=O` [Compound I-0297], 10 to 100 nM.
For the molecule `Cc1nc(-c2ccc(F)cc2NC(=O)C(C)(C)C)cc(=O)n1CC(=O)NCC1(CO)COC1` [Compound I-0298], the half-inhibitory concentration (IC50) was 100 to 1000 nM.
For `CC(C)(C)OC(=O)Cn1c(CCCC(F)(F)F)nc(-c2ccc(Cl)cc2CO)cc1=O` [Compound I-0299] the value was under 10 nM; for `Cc1nc(-c2ccc(Cl)cc2NC(=O)C2CC2)cc(=O)n1CC(=O)NCC1(CO)COC1` [Compound I-0300], 10 to 100 nM.
For `Cc1nc(-c2ccc(Cl)cc2NC(=O)C(C)(C)C)cc(=O)n1CC(=O)N1CCC(O)CC1` [Compound I-0301] the value was 10 to 100 nM; for `COC(=O)Nc1cc(Cl)ccc1-c1cc(=O)n(CC(=O)N(C)C2(CO)CCCC2)c(C)n1` [Compound I-0302], 10 to 100 nM; for `CC(O)CNC(=O)Cn1c(CCCC(F)(F)F)nc(-c2ccc(C(F)(F)F)cc2)cc1=O` (centres unmarked) [Compound I-0303], 10 to 100 nM.
In the case of `CC(C)(C)OC(=O)Cn1c(CCCC(F)(F)F)nc(-c2ccc(C(F)(F)F)nc2)cc1=O` [Compound I-0304] it was 10 to 100 nM; in that of `CN(CCO)C(=O)Cn1c(CCCC(F)(F)F)nc(-c2ccc(C(F)(F)F)cc2)cc1=O` [Compound I-0305], 10 to 100 nM.
As to `COC(=O)c1cccc(Cn2c(CCCC(F)(F)F)nc(-c3ccc(Cl)cc3)cc2=O)n1` [Compound I-0306], the half-inhibitory concentration (IC50) is 10 to 100 nM.
For `COC(=O)c1cncc(Cn2c(CCCC(F)(F)F)nc(-c3ccc(Cl)cc3)cc2=O)c1` [Compound I-0307] the value was 100 to 1000 nM; for `Cc1nc(-c2ccc(C#N)cc2NC(=O)C(C)(C)C)cc(=O)n1CC(=O)NCC1(CO)COC1` [Compound I-0308], 10 to 100 nM; for `COC(=O)Nc1cc(Cl)ccc1-c1cc(=O)n(CC(=O)NC2CCS(=O)(=O)C2)c(C)n1` (centres unmarked) [Compound I-0309], 10 to 100 nM.
As to `Cc1nc(-c2ccc(Cl)cc2NC(=O)C(C)(C)C)cc(=O)n1CC(=O)Nc1cccnc1O` [Compound I-0310], the IC50 was in the range of 10 to 100 nM.
For `CCOC(=O)c1noc(Cn2c(CCCC(F)(F)F)nc(-c3ccc(Cl)cc3)cc2=O)n1` [Compound I-0311] the value was 100 to 1000 nM; for `COC(=O)c1ccc(Cn2c(CCCC(F)(F)F)nc(-c3ccc(Cl)cc3)cc2=O)s1` [Compound I-0312], 100 to 1000 nM.
`COC(=O)c1cc(Cn2c(CCCC(F)(F)F)nc(-c3ccc(Cl)cc3)cc2=O)cs1` [Compound I-0313]: the IC50 was 100 to 1000 nM.
With `N#CC1CN(C(=O)Cn2c(CCCC(F)(F)F)nc(-c3ccc(C(F)(F)F)cc3)cc2=O)C1` [Compound I-0314], the IC50 was 10 to 100 nM.
With `CC1(O)CN(C(=O)Cn2c(CCCC(F)(F)F)nc(-c3ccc(Cl)cc3CO)cc2=O)C1` [Compound I-0315], the concentration for half-maximal inhibition (IC50) is at least 1000 nM.
Take `CSc1nc(-c2ccc(Cl)cc2NC(=O)C(C)(C)C)cc(=O)n1CC(=O)NC1(C#N)CC1` [Compound I-0316]: the IC50 fell in the range of 10 to 100 nM.
For the molecule `Cc1nc(-c2ccc(Cl)cc2NC(=O)C(C)(C)C)cc(=O)n1CC(=O)NCC1(CO)COC1` [Compound I-0317], the 50% inhibitory concentration (IC50) fell in the range of 10 to 100 nM.
Turning to `O=C(Cn1c(CCCC(F)(F)F)nc(-c2ccc(C(F)(F)F)cc2)cc1=O)NCC1CCO1` (centres unmarked) [Compound I-0318], the half-inhibitory concentration (IC50) was in the range of 10 to 100 nM.
On to `O=C(Cn1c(CCCC(F)(F)F)nc(-c2ccc(C(F)(F)F)cc2)cc1=O)N1CCC(O)C1` (centres unmarked) [Compound I-0319], for which the IC50 is 100 to 1000 nM.
For `CC1(O)CN(C(=O)Cn2c(CCCC(F)(F)F)nc(-c3ccc(C(F)(F)F)cc3)cc2=O)C1` [Compound I-0320] the value was 100 to 1000 nM; for `CC(C)(O)CNC(=O)Cn1c(CCCC(F)(F)F)nc(-c2ccc(C(F)(F)F)cc2)cc1=O` [Compound I-0321], 10 to 100 nM.
With `O=C(O)c1cccc(Cn2c(CCCC(F)(F)F)nc(-c3ccc(Cl)cc3CO)cc2=O)c1` [Compound I-0322], the 50% inhibitory concentration (IC50) lay in the range of 10 to 100 nM.
In the case of `O=C(Cn1c(CCCC(F)(F)F)nc(-c2ccc(C(F)(F)F)cc2)cc1=O)NCC(O)CO` (centres unmarked) [Compound I-0323] it was 10 to 100 nM; in that of `COC(=O)Nc1cc(Cl)ccc1-c1cc(=O)n(CC(=O)NC2(C)CCS(=O)(=O)C2)c(C)n1` (centres unmarked) [Compound I-0324], 10 to 100 nM.
In the case of `CS(C)(=O)=NC(=O)Cn1c(CCCC(F)(F)F)nc(-c2ccc(C(F)(F)F)cc2)cc1=O` [Compound I-0325] it was 10 to 100 nM; in that of `CCOC(=O)c1nc(Cn2c(CCCC(F)(F)F)nc(-c3ccc(Cl)cc3)cc2=O)cs1` [Compound I-0326], 10 to 100 nM; in that of `N#CC1CCN(C(=O)Cn2c(CCCC(F)(F)F)nc(-c3ccc(C(F)(F)F)cc3)cc2=O)C1` (centres unmarked) [Compound I-0327], 10 to 100 nM.
`O=C(Cn1c(CCCC(F)(F)F)nc(-c2ccc(Cl)cc2CO)cc1=O)NCC1(CO)CC1` [Compound I-0328]: the IC50 was in the range of 10 to 100 nM.
For `Cc1nc(-c2ccc(Cl)cc2NC(=O)C(C)(C)C)cc(=O)n1CC(=O)N1CCC(C(N)=O)CC1` [Compound I-0329] the value was 10 to 100 nM; for `O=C(Cn1c(CCCC(F)(F)F)nc(-c2ccc(C(F)(F)F)cc2)cc1=O)NCc1c[nH]nn1` [Compound I-0330], 10 to 100 nM.
For `O=C(Cn1c(CCCC(F)(F)F)nc(-c2ccc(C(F)(F)F)cc2)cc1=O)NCc1nn[nH]n1` [Compound I-0331] the value was under 10 nM.
In the case of `CN(C(=O)Cn1c(CCCC(F)(F)F)nc(-c2ccc(C(F)(F)F)cc2)cc1=O)C1(C)COC1` [Compound I-0332] it was 10 to 100 nM.
Regarding `O=C(Cn1c(CCCC(F)(F)F)nc(-c2ccc(C(F)(F)F)cc2)cc1=O)NCCc1cn[nH]c1` [Compound I-0333], the IC50 is 10 to 100 nM.
For `O=C(Cn1c(CCCC(F)(F)F)nc(-c2ccc(Cl)cc2CO)cc1=O)NCC1(CO)COC1` [Compound I-0334] the value was 10 to 100 nM; for `O=C(Cn1c(CCCC(F)(F)F)nc(-c2ccc(C(F)(F)F)cc2)cc1=O)NCC1CCC(=O)N1` (centres unmarked) [Compound I-0335], 10 to 100 nM.
For `O=C1CC(CNC(=O)Cn2c(CCCC(F)(F)F)nc(-c3ccc(C(F)(F)F)cc3)cc2=O)CN1` (centres unmarked) [Compound I-0336] the value was 10 to 100 nM; for `O=C(Cn1c(CCCC(F)(F)F)nc(-c2ccc(C(F)(F)F)cc2)cc1=O)NCC1(CO)COC1` [Compound I-0337], 10 to 100 nM.
Take `O=C(Cn1c(CCCC(F)(F)F)nc(-c2ccc(C(F)(F)F)cc2)cc1=O)N1CCOC(CO)C1` (centres unmarked) [Compound I-0338]: the half-inhibitory concentration (IC50) was 10 to 100 nM.

The values above are taken from patent publication US10183949B2, “Pyrimidinone derivative having autotaxin-inhibitory activity” (The University of Tokyo, priority 2014, dated 2019).
